Data published in US9914722B2, “Compounds for treating spinal muscular atrophy” (PTC Therapeutics Inc., priority 2012, dated 2018).

Assays:
[1] = system: full length SMN2 minigene mRNA containing SMN2 exon 7 (SMN2-A minigene); assay: SMN2 minigene mRNA splicing RT-qPCR assay in cultured cells; type: cell-based, human; conditions: Homo sapiens, HEK293-H; HEK293H cells stably transfected with SMN2-A minigene, 24 hours, 7-point concentration curve; concentration giving 1.5-fold SMN2 full length mRNA vs vehicle; read-out: EC1.5x for production of full length SMN2 mRNA
Description: SMN2 Minigene mRNA Splicing RT-qPCR Assay in Cultured Cells
The reverse transcription-quantitative PCR-based (RT-qPCR) assay is used to quantify the level of the full length SMN2 minigene mRNA containing SMN2 exon 7 in a HEK293H cell line stably transfected with said minigene and treated with a test compound.
Protocol. HEK293H cells stably transfected with the SMN2-A minigene construct described above (10,000 cells/well) are seeded in 200 μL of cell culture medium (DMEM plus 10% FBS, with 200 μg/mL hygromycin) in 96-well flat-bottom plates and the plate is immediately swirled to ensure proper dispersal of cells, forming an even monolayer of cells. Cells are allowed to attach for at least 4-6 hours. Test compounds are serially diluted 3.16-fold in 100% DMSO to generate a 7-point concentration curve. A solution of test compound (1 μL, 200× in DMSO) is added to each cell-containing well and the plate is incubated for 24 hours in a cell culture incubator (37° C., 5% CO2, 100% relative humidity). Two replicates are prepared for each test compound concentration. The cells are then lysed in Cells-To-Ct lysis buffer and the lysate is stored at −80° C.
Primer SMN Forward A (SEQ ID NO. 1) hybridizes to a nucleotide sequence in exon 7 (nucleotide 22 to nucleotide 40), primer SMN Reverse A (SEQ ID NO. 2) hybridizes to a nucleotide sequence in the coding sequence of Firefly luciferase, SMN Probe A (SEQ ID NO. 3) hybridizes to a nucleotide sequence in exon 7 (nucleotide 50 to nucleotide 54) and exon 8 (nucleotide 1 to nucleotide 21). The combination of these three oligonucleotides detects only SMN1 or SMN2 minigenes (RT-qPCR) and will not detect endogenous SMN1 or SMN2 genes.
The SMN forward and reverse primers are used at final concentrations of 0.4 μM. The SMN probe is used at a final concentration of 0.15 μM. The GAPDH primers are used at final concentrations of 0.2 μM and the probe at 0.15 μM.
The SMN2-minigene GAPDH mix (15 μL total volume) is prepared by combining 7.5 μL of 2×RT-PCR buffer, 0.4 μL of 25×RT-PCR enzyme mix, 0.75 μL of 20×GAPDH primer-probe mix, 4.0075 μL of water, 2 μL of 10-fold diluted cell lysate, 0.06 μL of 100 μM SMN forward primer, 0.06 μL of 100 μM SMN reverse primer, and 0.225 μL of 100 μM SMN probe.
PCR is carried out at the following temperatures for the indicated time: Step 1: 48° C. (15 min); Step 2: 95° C. (10 min); Step 3: 95° C. (15 sec); Step 4: 60° C. (1 min); then repeat Steps 3 and 4 for a total of 40 cycles.
Each reaction mixture contains both SMN2-A minigene and GAPDH primers/probe sets (multiplex design), allowing simultaneous measurement of the levels of two transcripts.
Two SMN spliced products are generated from the SMN2 minigene. The first spliced product containing exon 7, corresponding to SMN2 full length mRNA, is referred to herein using the term “SMN2 minigene FL.” The second spliced product lacking exon 7 is referred to herein using the term “SMN2 minigene Δ7.”
The increase of SMN2 minigene FL mRNA relative to that in cells treated with vehicle control is determined from real-time PCR data using a modified ΔΔCt method (as described in Livak and Schmittgen, Methods, 2001, 25:402-8). The amplification efficiency (E) is calculated from the slope of the amplification curve for SMN2 minigene FL and GAPDH mRNA individually. The abundance of SMN2 minigene FL and GAPDH mRNA are then calculated as (1+E)^−Ct, where Ct is the threshold value for each amplicon. The abundance of SMN2 minigene FL is normalized to GAPDH abundance. The normalized SMN2 minigene FL abundance from test compound-treated samples is then divided by normalized SMN2 minigene FL abundance from vehicle-treated cells to determine the level of SMN2 FL mRNA relative to vehicle control. […]

[2] = system: Smn protein; assay: Smn protein assay (Smn HTRF) in cultured cells; type: cell-based, human; conditions: Homo sapiens, Fibroblast, GM03813 SMA Type 1 patient fibroblasts, 48 hours, HTRF; for maximal fold induction: 7-point concentration data, relative to vehicle, read-out: maximum fold (Fold) increase of Smn protein; for EC (1.5-fold): concentration producing 1.5 times Smn protein vs DMSO vehicle, read-out: EC1.5x for Smn protein expression
Description: Smn Protein Assay in Cultured Cells
The Smn HTRF (homogeneous time resolved fluorescence) assay is used to quantify the level of Smn protein in SMA patient fibroblast cells treated with test compounds.
Protocol. Cells are thawed and cultured in DMEM-10% FBS for 72 hours. Cells are trypsinized, counted and re-suspended to a concentration of 25,000 cells/mL in DMEM-10% FBS. The cell suspension is plated at 5,000 cells per well in a 96 well microtiter plate and incubated for 3 to 5 hours. […] Test compounds are serially diluted 3.16-fold in 100% DMSO to generate a 7-point concentration curve. 1 μL of test compound solution is transferred to cell-containing wells and cells are incubated for 48 hours in a cell culture incubator (37° C., 5% CO2, 100% relateive humidity). Triplicate samples are set up for each test compound concentration. After 48 hours, the supernatant is removed from the wells and 25 μL of the RIPA lysis buffer, containing protease inhibitors, is added to the wells and incubated with shaking at room temperature for 1 hour. 25 μL of the diluent is added and then 35 μL of the resulting lysate is transferred to a 384-well plate, where each well contains 5 μL of the antibody solution (1:100 dilution of anti-SMN d2 and anti-SMN kryptate in SMN reconstitution buffer). The plate is centrifuged for 1 minute to bring the solution to the bottom of the wells, then incubated overnight at room temperature. Fluorescence for each well of the plate at 665 nm and 620 nm is measured on an EnVision multilabel plate reader (Perkin-Elmer).
The normalized fluorescence signal is calculated for each sample, Blank and vehicle control well by dividing the signal at 665 nm by the signal at 620 nm. Normalizing the signal accounts for possible fluorescence quenching due to the matrix effect of the lysate. The AF value (a measurement of Smn protein abundance as a percent value) for each sample well is calculated by subtracting the normalized average fluorescence for the Blank control wells from the normalized fluorescence for each sample well, then dividing this difference by the normalized average fluorescence for the Blank control wells and multiplying the resulting value by 100. The ΔF value for each sample well represents the Smn protein abundance from test compound-treated samples. The ΔF value for each sample well is divided by the ΔF value for the vehicle control wells to calculate the fold increase in Smn protein abundance relative to the vehicle control.
For compounds of Formula (I) or a form thereof disclosed herein, Table 9 provides the EC1.5x for Smn protein expression that was obtained from the 7-point concentration data generated for each test compound according to the procedure of Biological Example 7. The term “EC1.5x for Smn protein expression” is defined as that concentration of test compound that is effective in producing 1.5 times the amount of Smn protein in an SMA patient fibroblast cell compared to the amount produced from the DMSO vehicle control. An EC1.5x for Smn protein expression between >3 μM and ≦10 μM is indicated by one star (*), an EC1.5x between >1 μM and ≦3 μM is indicated by two stars (**), an EC1.5x between >0.3 μM and ≦1 μM is indicated by three stars (***) and an EC1.5x≦0.3 μM is indicated by four stars (****).
For compounds of Formula (I) or a form thereof disclosed herein, Table 10 provides the maximum fold (Fold) increase of Smn protein that was obtained from the 7-point concentration data generated for each test compound according to the procedure of Biological Example 7. A maximum fold increase ≦1.2 is indicated by one star (*), a fold increase between >1.2 and ≦1.35 is indicated by two stars (**), a fold increase between >1.35 and ≦1.5 is indicated by three stars (***), a fold increase between >1.5 and ≦1.65 is indicated by four stars (****) and a fold increase >1.65 is indicated by five stars (*****).

Row | Structure (SMILES) | EC (1.5-fold) [1] [µM] | maximal fold induction [2] | EC (1.5-fold) [2] [µM] | melting point [°C]
1 | C[C@@H]1CN(c2ccc3oc(-c4ccccn4)cc(=O)c3c2)CCN1 [Cpd 15, 6-[(3R)-3-methylpiperazin-1-yl]-2-(pyridin-2-yl)-4H-chromen-4-one] | 1 to 3 | 1.5 to 1.65 | 3 to 10 | 140 to 142
2 | C[C@@H]1CN(c2ccc3oc(-c4cn5ccccc5n4)cc(=O)c3c2)CCN1 [Cpd 16, 2-(imidazo[1,2-a]pyridin-2-yl)-6-[(3R)-3-methylpiperazin-1-yl]-4H-chromen-4-one] | 1 to 3 | > 1.65 | 1 to 3 | 210 to 215
3 | O=c1cc(-c2cn3ccccc3n2)oc2ccc(N3CCCNCC3)cc12 [Cpd 18, 6-(1,4-diazepan-1-yl)-2-(imidazo[1,2-a]pyridin-2-yl)-4H-chromen-4-one] | 3 to 30 | > 1.65 | 3 to 10 | 198 to 200
4 | CN1CCCN(c2ccc3oc(-c4cn5ccccc5n4)cc(=O)c3c2)CC1 [Cpd 19, 2-(imidazo[1,2-a]pyridin-2-yl)-6-(4-methyl-1,4-diazepan-1-yl)-4H-chromen-4-one] | 3 to 30 | > 1.65 | 1 to 3 | 188 to 190
5 | COc1ccc(-c2cc(=O)c3cc(N4CCNCC4)ccc3o2)cc1OC [Cpd 20, 2-(3,4-dimethoxyphenyl)-6-(piperazin-1-yl)-4H-chromen-4-one] | ≤ 0.1 | > 1.65 | 0.3 to 1 | 177 to 179
6 | COc1ccc(-c2cc(=O)c3cc(N4CCN(C)CC4)ccc3o2)cc1OC [Cpd 21, 2-(3,4-dimethoxyphenyl)-6-(4-methylpiperazin-1-yl)-4H-chromen-4-one] | 0.3 to 1 | > 1.65 | 1 to 3 | 184 to 186
7 | CCN1CCN(c2ccc3oc(-c4ccc(OC)c(OC)c4)cc(=O)c3c2)CC1 [Cpd 22, 2-(3,4-dimethoxyphenyl)-6-(4-ethylpiperazin-1-yl)-4H-chromen-4-one] | 0.3 to 1 | > 1.65 | 1 to 3 | 188 to 190
8 | COc1ccc(-c2cc(=O)c3cc(N4CCN[C@H](C)C4)ccc3o2)cc1OC [Cpd 23, 2-(3,4-dimethoxyphenyl)-6-[(3R)-3-methylpiperazin-1-yl]-4H-chromen-4-one] | 0.1 to 0.3 | 1.5 to 1.65 | 0.3 to 1 | 181 to 183
9 | COc1ccc(-c2cc(=O)c3cc(N4C[C@@H](C)N[C@@H](C)C4)ccc3o2)cc1OC [Cpd 24, 2-(3,4-dimethoxyphenyl)-6-[(3R,5S)-3,5-dimethylpiperazin-1-yl]-4H-chromen-4-one] | 0.3 to 1 | > 1.65 | 1 to 3 | 206 to 208
10 | COc1ccc(-c2cc(=O)c3cc(N4CCCNCC4)ccc3o2)cc1OC [Cpd 25, 6-(1,4-diazepan-1-yl)-2-(3,4-dimethoxyphenyl)-4H-chromen-4-one] | 3 to 30 | 1.35 to 1.5 |  | 152 to 154
11 | COc1ccc(-c2cc(=O)c3cc(N4CCCN(C)CC4)ccc3o2)cc1OC [Cpd 26, 2-(3,4-dimethoxyphenyl)-6-(4-methyl-1,4-diazepan-1-yl)-4H-chromen-4-one] | 3 to 30 | 1.35 to 1.5 |  | 106 to 108
12 | COc1ccc(-c2cc(=O)c3cc(N4CCNC(C)(C)C4)ccc3o2)cc1OC [Cpd 27, 2-(3,4-dimethoxyphenyl)-6-(3,3-dimethylpiperazin-1-yl)-4H-chromen-4-one] | 0.3 to 1 | > 1.65 | 1 to 3 | 108 to 110
13 | Cc1ccn2cc(-c3cc(=O)c4cc(N5CCNCC5)ccc4o3)nc2c1 [Cpd 28, 2-(7-methylimidazo[1,2-a]pyridin-2-yl)-6-(piperazin-1-yl)-4H-chromen-4-one] | 1 to 3 | > 1.65 | 3 to 10 | 228 to 232
14 | Cc1ccn2cc(-c3cc(=O)c4cc(N5CCN[C@H](C)C5)ccc4o3)nc2c1 [Cpd 29, 2-(7-methylimidazo[1,2-a]pyridin-2-yl)-6-[(3R)-3-methylpiperazin-1-yl]-4H-chromen-4-one] | 3 to 30 | 1.35 to 1.5 | 3 to 10 | 150 to 155
